The results in this text go back to PubChem BioAssay AID1552 (Sanford-Burnham Center for Chemical Genomics, 2009).

Activity calls are given as the source filed them. No rule for the calls is given here.

The target in the assay is Ubiquitin-conjugating enzyme E2 N (Homo sapiens) (UniProt P61088). In words: NMR detection of UBE2N ligand binding – biophysical, purified protein (AID 1552). Conditions: NMR binding to purified UBE2N.
Sequence of Ubiquitin-conjugating enzyme E2 N (Homo sapiens) (P61088 whole entry, looked up): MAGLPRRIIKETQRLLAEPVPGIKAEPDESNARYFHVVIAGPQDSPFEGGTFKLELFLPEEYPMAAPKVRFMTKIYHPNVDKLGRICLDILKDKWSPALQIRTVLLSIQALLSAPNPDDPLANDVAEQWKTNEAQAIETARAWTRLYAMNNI
`COc1ccc(NC(=O)/C=N/O)cc1`: the Kd (in general, the equilibrium constant for the complex coming apart) was > 4 mM (inactive).

For the compound `CC(CC(=O)O)n1cccn1` (stereo not drawn), the Kd was > 4 mM (inactive).

As for `CN1CCN(c2ccc(C(=O)O)cc2)CC1`, the Kd was > 4 mM (inactive).

For `CC(=O)O[C@@H]1CC2C(C)(C)C(=O)[C@@H]3O[C@@H]3[C@]2(C)C2CC[C@]3(C)C(=CC(=O)O[C@H]3c3ccoc3)[C@@]21C` (stereo partly drawn), the Kd was > 4 mM (inactive).

Regarding `CC1(C)C=Cc2cc3ccc(=O)oc3cc2O1`, the Kd was > 4 mM (inactive).

With `CN(C)c1ccc(CNn2cnnc2)cc1`, the Kd is > 4 mM (inactive).

Turning to `COc1c2occc2cc2ccc(=O)oc12`, the Kd was > 4 mM (inactive).

For `O=C(c1ccco1)N1CCn2c1nc1ccccc12`, the Kd was > 4 mM (inactive).

With `CCCc1cc2c(c(NC(C)=O)n1)c(=O)oc1ccccc12`, the Kd is > 4 mM (inactive).

`CS(=O)(=O)N1CCN(c2ccccc2F)CC1`: the Kd was > 4 mM (inactive).

As for `Cc1cc(C)n(S(=O)(=O)c2ccc(C(C)(C)C)cc2)n1`, the Kd was > 4 mM (inactive).

As to `CSc1ccn(CCC(=O)O)c(=O)n1`, the Kd is > 4 mM (inactive).

Consider `c1ccc(-c2noc(-c3ccco3)n2)nc1`, for which the Kd is > 4 mM (inactive).

For `CC(=O)Nc1c(C#N)c(C(C)(C)C)cn1C`, the Kd was > 4 mM (inactive).

Take `CC(=O)OCC(=O)[C@@]1(O)CCC2C3CC[C@@H]4C[C@H](OC(C)=O)CC[C@]4(C)C3C(=O)C[C@@]21C` (stereo partly drawn): the Kd was > 4 mM (inactive).

Turning to `Cc1nc2ccccc2c(=O)n1N1C(=O)CCCC1=O`, the Kd is > 4 mM (inactive).

As to `Nc1ccc(S(=O)(=O)N2CCOCC2)cc1`, the Kd was > 4 mM (inactive).

For the compound `CNC(=O)Nc1ccc(C(=O)NC)cc1`, the Kd was > 4 mM (inactive).

On to `CCOC(=O)c1c(C)n([O-])c2ccccc2[n+]1=O`, for which the Kd is > 4 mM (inactive).

For the compound `CCCCCCCCCCCCCCCCCCOCC(O)CO` (stereo not drawn), the Kd was > 4 mM (inactive).

`O=C(NCCO)c1cc2ccccc2cc1O`: the Kd is > 4 mM (inactive).

For `CCc1c(C(=O)Nc2ccncc2)csc1C`, the Kd was > 4 mM (inactive).

For `COc1ccc(C)cc1S(=O)(=O)NC1CCCC1`, the Kd was > 4 mM (inactive).

`CC(C)CC(=O)Nc1c[nH]c(=O)[nH]c1=O`: the Kd was > 4 mM (inactive).

Consider `COc1ccccc1NS(=O)(=O)c1c[nH]c(=O)[nH]c1=O`, for which the Kd is > 4 mM (inactive).

`Nc1ccc(OCc2ccccc2)cc1`: the Kd was > 4 mM (inactive).

As to `CC(=O)c1ccc(NS(=O)(=O)c2cccc(C)c2)cc1`, the Kd is > 4 mM (inactive).

With `Cn1ccc(NC(=S)NC2CCCC2)n1`, the Kd was > 4 mM (inactive).

Turning to `C[C@@H]1C(=O)OC2[C@H](O)C34[C@@H]5OC(=O)[C@@]3(O[C@@H]3OC(=O)[C@H](O)[C@@]34[C@H](C(C)(C)C)[C@H]5O)[C@]21O` (stereo partly drawn), the Kd was > 4 mM (inactive).

On to `NC(=O)c1cc2c(n(-c3ccccc3)c1=O)CCCC2=O`, for which the Kd was > 4 mM (inactive).

In the case of `Nc1cc(F)ccc1-n1ccnc1`, the Kd was > 4 mM (inactive).

Turning to `CCOC(=O)c1c(C)cc(O)c(C=O)c1O`, the Kd was > 4 mM (inactive).

Turning to `Cc1cc(S(=O)(=O)N2CCOCC2)ccc1F`, the Kd was > 4 mM (inactive).

Take `C[C@@H]1CC[C@@]2(OC1)O[C@H]1CC3C4CC[C@H]5C[C@@H](O)CC[C@]5(C)C4CC[C@]3(C)[C@H]1[C@@H]2C` (stereo partly drawn): the Kd was > 4 mM (inactive).

On to `COc1ccc(-c2coc3c(OC)c(OC)cc(OC)c3c2=O)cc1`, for which the Kd was > 4 mM (inactive).

`O=C1CCNc2cc3ccccc3cc21`: the Kd was > 4 mM (inactive).

In the case of `COc1ccc2[nH]cc(CCNC(C)=O)c2c1`, the Kd is > 4 mM (inactive).

With `O=C(COc1ccccc1)N1CCc2ccccc2C1`, the Kd is > 4 mM (inactive).

`O=C(O)CCCCCCCC(=O)O`: the Kd was > 4 mM (inactive).

With `O=C1c2ccccc2C(=O)N1OCc1ccccc1`, the Kd was > 4 mM (inactive).

Take `CC1(C)CC2C1CCC1(C)OC2(C)CCC1O` (stereo not drawn): the Kd was > 4 mM (inactive).

In the case of `NC(=O)CSc1nnc2ccc3ccccc3n12`, the Kd is > 4 mM (inactive).

On to `CN1CCN(C(=O)c2ccco2)CC1`, for which the Kd was > 4 mM (inactive).

In the case of `CC1(C)CC2C1CCC1(C)OC1CCC2(C)O` (stereo not drawn), the Kd is > 4 mM (inactive).

Take `Nc1cccc(OC(F)(F)F)c1`: the Kd is > 4 mM (inactive).

For the compound `O=C1NC(=S)NC(=O)C1=Cc1ccncc1`, the Kd is > 4 mM (inactive).

On to `NC(CCC(=O)Nc1ccc([N+](=O)[O-])cc1)C(=O)O` (stereo not drawn), for which the Kd is > 4 mM (inactive).

Consider `COc1ccc(-c2c(O)c3c(OC)c4c(cc3oc2=O)OC(C)(C)CC4)cc1`, for which the Kd is > 4 mM (inactive).

Regarding `Nc1nc(-c2ccc(F)c(F)c2)cs1`, the Kd was > 4 mM (inactive).

Take `C(=N\c1nccs1)/c1cccnc1`: the Kd is > 4 mM (inactive).

As to `NC(=O)C(=O)NCc1ccc(Cl)cc1`, the Kd was > 4 mM (inactive).

As to `Cc1cc(C)cc(C(=O)n2cnnc2N)c1`, the Kd is > 4 mM (inactive).

As to `CC(C)=CCc1c(O)cc2occ(-c3ccc4c(c3)OCO4)c(=O)c2c1O`, the Kd is > 4 mM (inactive).

Consider `O=c1[nH]cc(NCc2ccco2)c(=O)[nH]1`, for which the Kd was > 4 mM (inactive).

For the compound `OCC1COc2ccccc2C1` (stereo not drawn), the Kd was > 4 mM (inactive).

Turning to `CC(C)c1c(O)ccc2c1CCC1[C@@](C)(CO)CCC[C@]21C` (stereo partly drawn), the Kd was > 4 mM (inactive).

With `CCC(C)C(=O)O[C@@H]1C[C@@]2(C)[C@H](c3ccoc3)OC(=O)CC23OC2(C)O[C@]14[C@]1(C)[C@@H](CC(=O)OC)C5(C)CC1(O)[C@](O)(C5OC(=O)C1(C)OC1C)[C@@H](OC(C)=O)[C@]34O2` (stereo partly drawn), the Kd was > 4 mM (inactive).

For the compound `Cc1ccc(SCc2cc(=O)n3[nH]c(C)nc3n2)cc1`, the Kd was > 4 mM (inactive).

In the case of `COc1ccccc1-c1noc(-c2ccco2)n1`, the Kd was > 4 mM (inactive).

With `CC1=C2C(=CO[C@H](C)[C@H]2C)C(=O)C(C(=O)O)=C1O`, the Kd was > 4 mM (inactive).

As for `O=C1CN(C(=O)c2ccccc2)c2ccccc2N1`, the Kd is > 4 mM (inactive).

`Nc1cc(=O)[nH]c(=S)n1CCc1ccccc1`: the Kd is > 4 mM (inactive).

On to `COc1c2occc2c(OC)c2c(=O)cc(C)oc12`, for which the Kd was > 4 mM (inactive).

Take `CC(C)(C)C(=O)N1CCCC1C(=O)O` (stereo not drawn): the Kd was > 4 mM (inactive).

Turning to `CCOC(=O)Cn1cnc2c1c(=O)[nH]c(=O)n2C`, the Kd was > 4 mM (inactive).

Turning to `O=C(O)C1CSC(c2cc3ccccc3nc2Cl)N1` (stereo not drawn), the Kd was > 4 mM (inactive).

For the compound `CS(=O)(=O)Nc1ccccc1C(=O)c1ccccc1`, the Kd is > 4 mM (inactive).

With `c1ccc2[nH]c(SCc3cscn3)nc2c1`, the Kd is > 4 mM (inactive).

With `Cc1n[nH]c(=O)nc1N1CCN(c2ccccc2)CC1`, the Kd was > 4 mM (inactive).

Regarding `CC(C)c1ccc2c(c1)CCC1[C@](C)(CN)CCC[C@]21C` (stereo partly drawn), the Kd was > 4 mM (inactive).

For the compound `CC(C)(C(N)=O)/[N+]([O-])=C\c1ccccc1`, the Kd was > 4 mM (inactive).

Regarding `Cn1c(SCC(N)=O)nnc1-c1cccnc1`, the Kd is > 4 mM (inactive).

Regarding `OCCCc1nc2ccccc2[nH]1`, the Kd was > 4 mM (inactive).

Take `NC(=O)C1CCN(C2CC(=O)NC2=O)CC1` (stereo not drawn): the Kd is > 4 mM (inactive).

`O=C(O)c1cncc(-c2cccs2)c1`: the Kd was > 4 mM (inactive).

As for `CC1=C(/C=C/C(C)=C/C=C/C(C)=C/C=C/C=C(C)/C=C/C=C(C)/C=C/C2=C(C)CCCC2(C)C)C(C)(C)CCC1`, the Kd was > 4 mM (inactive).

Turning to `C[C@H]1O[C@@H](O[C@H]2[C@@H](O)C[C@H](O[C@H]3[C@@H](O)C[C@H](O[C@H]4CC[C@]5(C)C6CC[C@]7(C)[C@@H](C8=CC(=O)OC8)CC[C@]7(O)C6CC[C@@H]5C4)O[C@@H]3C)O[C@@H]2C)C[C@H](O)[C@@H]1O` (stereo partly drawn), the Kd is > 4 mM (inactive).

`NCc1nc2ccccc2s1`: the Kd was > 4 mM (inactive).

With `NC(=O)Cn1cnc2c(cnn2-c2ccccc2)c1=O`, the Kd was > 4 mM (inactive).

For `NC(=O)CN1CCC(c2nc3ccccc3[nH]2)CC1`, the Kd is > 4 mM (inactive).

For the compound `N#Cc1cc2ccccc2nc1N`, the Kd is > 4 mM (inactive).

`CN1C(=O)c2ccc(C(=O)NCc3ccccc3)cc2C1=O`: the Kd was > 4 mM (inactive).

For the compound `CC(=O)N1CC2(C)CN(C(C)=O)CC(C)(C1)C2O` (stereo not drawn), the Kd was > 4 mM (inactive).

Consider `COc1cc(OC)c2c(c1)O[C@H](c1ccc(OC)c(OC)c1)[C@@H](O)C2`, for which the Kd was > 4 mM (inactive).

`Cn1ccnc1SCc1cc(=O)[nH]c2ccccc12`: the Kd is > 4 mM (inactive).

Regarding `O=c1cnnc(SCCc2ccccc2)[nH]1`, the Kd was > 4 mM (inactive).

Take `CC12CCCC(O)(C1)C1CC(C)(C)C1CC2` (stereo not drawn): the Kd was > 4 mM (inactive).

Turning to `CC(C)CCCC(C)[C@H]1CCC2C3CC[C@@H]4C[C@H](O)CC[C@]4(C)C3CC[C@@]21C` (stereo partly drawn), the Kd was > 4 mM (inactive).

With `O=C1CS/C(=N/S(=O)(=O)c2ccccc2)N1`, the Kd is > 4 mM (inactive).

Turning to `Cc1onc(-c2c(F)cccc2Cl)c1C(N)=O`, the Kd is > 4 mM (inactive).

For `Cc1[nH]ccc2c1[nH]c1cc(=O)ccc12`, the Kd was > 4 mM (inactive).

On to `COc1cc(C(=O)NCC2CCCO2)cc(OC)c1OC` (stereo not drawn), for which the Kd is > 4 mM (inactive).

On to `C=CCc1ccc(O)c(OC)c1`, for which the Kd was > 4 mM (inactive).

In the case of `OCC1CCN(Cc2ccccc2)CC1`, the Kd is > 4 mM (inactive).

As to `CC1CN(C2=NCCN2)CC(C)O1` (stereo not drawn), the Kd is > 4 mM (inactive).

For the compound `COc1ccc(C(=O)O)cc1OC`, the Kd is > 4 mM (inactive).

On to `NC(=O)C1CCN(C(=O)Nc2ccccc2)CC1`, for which the Kd was > 4 mM (inactive).

With `O=C(Nc1cccnc1)c1ccc(Br)s1`, the Kd is > 4 mM (inactive).
